The text below walks through data of patent US20130237452A1, “Screening method for selecting plants that show a reduced wound-induced surface discolouration” (RIJK ZWAAN ZAADTEELT EN ZAADHANDEL B.V., priority 2006, published 2013).

“Also recorded” adds a separate entry of the source.

In assay [1] the test system is PPO. The assay is described as follows: L-DOPA leaf disc assay: black discolouration (melanin) at wound surface. Format: cell-based, lettuce. Here is the method: In addition to assays which address wound-induced discolouration in a broad sense, the method according to this invention also allows to screen in a more specific manner for mutants which have a reduced PPO activity. A phenotypic assay which is indicative for PPO activity was developed by using leaf discs which were incubated in the presence of 1.5 mM L-DOPA. […] Furthermore, it was shown that the reaction can be inhibited by adding 1 mM L-cysteine during the reaction (FIG. 5). Therefore, this assay enabled the identification of mutants which are modified in the ability to mount a PPO activity at a wound surface of a leaf. The response of lettuce leaf discs to the presence of L-DOPA can be observed both in solution as well as between wetted filter papers as shown in FIG. 13.

Assay [2] concerns germinated seeds of lettuce. The assay is described as follows: L-DOPA assay on germinated seeds. Here is the method: Germinated seeds of lettuce were incubated with L-DOPA. […] This colour reaction can be used for screening seeds that show a reduced discolouration.
Assay [3] relates to seeds of lettuce. The assay is described as follows: L-DOPA assay on seeds. Here is the method: (§1) Seeds of lettuce and eggplant were incubated with 0, 2.5 and 5 mM L-DOPA. […] The response is PPO-dependent because it can be inhibited with L-cysteine.
The test system of assay [4] is seeds of eggplant. In words: L-DOPA assay on seeds. The protocol: as §1
The subject of assay [5] is lettuce leaf discs. In words: leaf disc pinking assay: wound-induced pink discolouration between wetted filter papers. Format: cell-based. As to conditions: for effect on formation of the pink dye (pinking response): applied during the reaction; for concentration at which the pink discolouration was completely inhibited: applied during the assay, 5° C. for 7 days. Here is the method:
A phenotypic assay was developed in which leaf discolouration of lettuce induced by wounding can readily be assessed. This approach allows young plant screening for discolouration. Leaf discs of 5 mm diameter were taken from young or mature plants and placed between wetted filter papers in a tray. The system was incubated at 5° C. for 7 days. During the incubation a pink dye developed at the wound site of the leaf disc which became clearly visible as a printed circle on the filter paper (FIG. 2).

For assay [6], the system named is lettuce seeds. The assay is described as follows: catechol assay on seeds. The protocol: Lettuce seeds were incubated with 0, 100, 250, 500, 750 and 1000 mg/L catechol.
Assay [7] relates to field-grown lettuce plant showing severe pinking symptoms. The assay is described as follows: pinking of leaf discs from field-grown lettuce. Conditions: 1 mM, approximately 30 minutes at room temperature. Here is the method: This is typically observed when plants have been stressed, for example by conditions of severe water logging. The leaf was used to prepare leaf discs which were incubated immediately by 1 mM L-cysteine.

Assay [8] deals with lettuce outer leaf midrib tissue discs. In words: midrib disc / cut leaf browning assay. Format: cell-based. Here is the method:
A further embodiment of this invention is based on the following experiment. Parts of a lettuce leaf of a head are produced by cutting and incubated at 16° C. in air. As a response the wound surface turns brown after approximately 4 days. Especially at the wound surface of the main vein the browning can clearly be observed. Furthermore, the browning reaction can also be observed at the whole plant level upon damaging leaves by cutting or abrasion. Lettuce plants were grown to maturity and parts of outer leaves were taken by cutting discs from the rib tissue. The discs were incubated on wetted filter paper at 16° C. After approximately 72 hours, the wound surface had turned brown.

Assay [9] is described as follows: treatment of melanin formed in the L-DOPA assay after the response was completed. The arrangement: species or system lettuce. As to conditions: added after the response was completed; 0-10 mM series. Here is the method:
(§2) As L-cysteine is known to react with o-quinones, which are PPO products, by converting them back into colourless diphenols, the effects of L-cysteine on the pink dye coming from lettuce leaf discs was determined. In parallel the effect of L-cysteine was determined on the melanin formation upon incubation with L-DOPA. Leaf discs were taken and incubated according to the procedures described above. After the wound response was completed, a concentration series of L-cysteine was added to the leaf disc and the change in colour was monitored.

Assay [10] can be described thus: treatment of the formed pink dye after the wound response was completed. The arrangement: species or system lettuce. Conditions: added after the wound response was completed; 0-10 mM series for L-cysteine. Here is the method: as §2
Assay [11] has as its system leaf discs of lettuce. In words: chlorogenic acid assay on leaf discs. Type of assay: cell-based. Here is the method: Leaf discs of lettuce were incubated with 10 mM chlorogenic acid on filter paper.

`N[C@@H](Cc1ccc(O)c(O)c1)C(=O)O` [L-DOPA, L-3,4-dihydroxyphenylalanine]: the “discolouration at the wound surface on incubation with the substrate” value in assay [1] (1.5 mM L-DOPA) is listed as “dark brown to black discolouration”. The “colour reaction of seed coat and root zone with the substrate” value in assay [2] is “show a colour reaction”. For the same molecule, the “colour reaction of seeds with the substrate” value is given as “concentration dependent” in [3] (0, 2.5 and 5 mM); “concentration dependent” in [4] (0, 2.5 and 5 mM).
For the molecule `C[C@H](N)C(=O)O` [L-alanine], the “effect on formation of the pink dye (pinking response)” value (shortened to “effect on formation of the pink dye”) in [5] was “did not show any effect”.
For `N[C@@H](CS)C(=O)O` [L-cysteine], in assay [6], the “effect on catechol colour response of seeds” value is given as “inhibited”. For the same molecule, in assay [5], the “concentration at which the pink discolouration was completely inhibited” value is on record as not below 0.001% and the “effect on formation of the pink dye” value is given as “strongly suppressed”. For the same molecule, the “effect on pink discolouration of field-grown leaf material” value in assay [7] is “pink discolouration disappeared; also recorded: eliminated”. Also, the “effect on browning response of midrib discs” value in assay [8] (10 mM, 16° C., approximately 72 hours) is reported as “inhibited”. Also, the “effect on wound-induced browning reactions (cut leaf parts, whole plant)” value in assay [8] (16° C. in air, concentration not given) is recorded as “completely be inhibited”. For the same molecule, in assay [1] (applied simultaneously with L-DOPA), the “effect on black L-DOPA discolouration” value is “completely inhibited”. The “effect on L-DOPA colour response of seeds” value in [3] is reported as “inhibited”. Moreover, the “effect on L-DOPA colour response of seeds” value in assay [4] is “inhibited”. Besides, the “effect on already formed black melanin” value in assay [9] was “not affected”. For the same molecule, in [10], the “effect on the already formed pink dye” value was “converting the pink dye back into a colourless compound; also recorded: converted into a colourless compound”. In addition, the “effect on chlorogenic acid induced colour” value in [11] (added to discs incubated with 10 mM chlorogenic acid) is “the colour disappeared again”.
For the molecule `CC(C)C[C@H](N)C(=O)O` [L-leucine], the “effect on formation of the pink dye” value in assay [5] is reported as “did not show any effect”.
On to `O=C1O[C@H]([C@@H](O)CO)C(O)=C1O` [ascorbic acid], for which, in [10], the “effect on the already formed pink dye” value was “convert the pink dye into a colourless compound”.
As to `Oc1ccccc1O` [catechol], the “colour response of seeds with the substrate” value in [6] (0, 100, 250, 500, 750 and 1000 mg/L) was “concentration dependent colour response”.
With `O=C(/C=C/c1ccc(O)c(O)c1)O[C@@H]1C[C@](O)(C(=O)O)C[C@@H](O)[C@H]1O` [chlorogenic acid], in [11] (10 mM on filter paper), the “discolouration of discs on incubation with the substrate” value was “browning”.
As to `O=CC=Cc1ccccc1` [cinnamaldehyde], in assay [5], the “concentration at which the pink discolouration was completely inhibited” value is given as not below 0.01% and the “effect on formation of the pink dye” value is recorded as “inhibited”.
`N[C@@H](CCC(=O)N[C@@H](CS)C(=O)NCC(=O)O)C(=O)O` [glutathion]: the “effect on the already formed pink dye” value in assay [10] is on record as “convert the pink dye into a colourless compound”.
